According to the supplement of paper PMC10307832:

How the values were obtained:
Assay in all cases: relative viability (nuclei count vs DMSO), 5 days (fraction); higher = more cells survive
Decitabine + Trametinib = compound: Nc1ncn([C@H]2C[C@H](O)[C@@H](CO)O2)c(=O)n1 [Decitabine] + CC(=O)Nc1cccc(-n2c(=O)n(C3CC3)c(=O)c3c(Nc4ccc(I)cc4F)n(C)c(=O)c(C)c32)c1 [Trametinib] (partner 0.02 µM)
How it was run: (§1)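 One day after seeding in 1536-well plates, lung cancer cell lines were dosed by pin tool. Dosing was either single-drug or a fixed anchor-drug dose plus five library-drug doses (not always all listed) in √10 steps. After 5 days, nuclei were stained in one fix-and-stain step and counted on 4× images, and relative viability is the nuclei count of treated wells over that of vehicle wells, given as the median of duplicate plates.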

Decitabine + Pemetrexed = compound: Nc1ncn([C@H]2C[C@H](O)[C@@H](CO)O2)c(=O)n1 [Decitabine] + Nc1nc2[nH]cc(CCc3ccc(C(=O)N[C@@H](CCC(=O)O)C(=O)O)cc3)c2c(=O)[nH]1 [Pemetrexed] (partner 0.2 µM)
How it was run: as §1

Decitabine + Phenformin = compound: Nc1ncn([C@H]2C[C@H](O)[C@@H](CO)O2)c(=O)n1 [Decitabine] + N=C(N)NC(=N)NCCc1ccccc1 [Phenformin] (partner 250 µM)
How it was run: as §1

[1] = compound: O=C(C[C@H]1NCCC[C@@H]1O)Cn1cnc2cc(Br)c(Cl)cc2c1=O (racemic) [Halofuginone] + Nc1ncn([C@H]2C[C@H](O)[C@@H](CO)O2)c(=O)n1 [Decitabine] (partner 2 µM)
How it was run: as §1

Cell Line | relative viability (Decitabine + Trametinib; first compound 0.04 µM) | relative viability (Decitabine + Trametinib; first compound 0.1265 µM) | relative viability (Decitabine + Trametinib; first compound 0.4 µM) | relative viability (Decitabine + Trametinib; first compound 1.265 µM) | relative viability (Decitabine + Trametinib; first compound 4 µM) | relative viability (Decitabine + Pemetrexed; first compound 0.04 µM) | relative viability (Decitabine + Pemetrexed; first compound 0.1265 µM) | relative viability (Decitabine + Pemetrexed; first compound 0.4 µM) | relative viability (Decitabine + Pemetrexed; first compound 1.265 µM) | relative viability (Decitabine + Pemetrexed; first compound 4 µM) | relative viability (Decitabine + Phenformin; first compound 0.04 µM) | relative viability (Decitabine + Phenformin; first compound 0.1265 µM) | relative viability (Decitabine + Phenformin; first compound 0.4 µM) | relative viability (Decitabine + Phenformin; first compound 1.265 µM) | relative viability (Decitabine + Phenformin; first compound 4 µM) | relative viability ([1]; first compound 0.001 µM) | relative viability ([1]; first compound 0.003162 µM) | relative viability ([1]; first compound 0.01 µM) | relative viability ([1]; first compound 0.03162 µM) | relative viability ([1]; first compound 0.1 µM)
BEN | 1.1 | 0.947 | 0.772 | 0.558 | 0.622 | 0.775 | 0.757 | 0.632 | 0.663 | 0.553 | 0.28 | 0.261 | 0.259 | 0.239 | 0.245 | 0.719 | 0.743 | 0.754 | 0.778 | 0.561
EPLC-272H | 0.293 | 0.29 |  | 0.251 | 0.234 | 0.346 | 0.256 |  | 0.339 | 0.27 |  | 0.26 | 0.0458 | 0.223 | 0.199 | 0.421 | 0.4 | 0.39 | 0.436 | 0.351
LK-2 | 0.692 | 0.674 | 0.605 | 0.435 | 0.371 | 0.194 | 0.256 | 0.223 | 0.245 | 0.211 | 0.376 | 0.522 | 0.375 | 0.295 | 0.244 | 0.309 | 0.261 | 0.337 | 0.328 | 0.286
ChaGo-K-1 | 0.729 | 0.628 | 0.5 | 0.434 | 0.62 | 0.27 | 0.261 | 0.253 | 0.251 | 0.269 | 0.435 | 0.413 | 0.301 | 0.271 | 0.336 | 0.548 | 0.531 | 0.474 | 0.532 | 0.532
HCC-827 | 0.222 | 0.378 | 0.322 | 0.257 | 0.344 | 0.161 | 0.585 | 0.198 | 0.202 | 0.219 | 0.17 | 0.288 | 0.283 | 0.214 | 0.289 | 0.332 | 0.282 | 0.207 | 0.295 | 0.308
NCI-H1993 | 0.491 | 0.431 | 0.394 | 0.432 | 0.511 | 0.542 | 0.583 | 0.607 | 0.506 | 0.403 | 0.558 | 0.494 | 0.507 | 0.504 | 0.478 | 0.636 | 0.635 | 0.52 | 0.565 | 0.443
NCI-H647 | 0.589 | 0.595 | 0.43 | 0.246 | 0.138 | 0.168 | 0.149 | 0.12 | 0.13 | 0.112 | 0.372 | 0.399 | 0.25 | 0.101 | 0.172 | 0.408 | 0.452 | 0.432 | 0.334 | 0.215
NCI-H522 | 0.718 | 0.714 | 0.547 | 0.537 | 0.513 | 0.979 | 0.839 | 0.677 | 0.705 | 0.505 | 0.564 | 0.674 | 0.514 | 0.552 | 0.65 | 0.735 | 0.673 | 0.871 | 0.753 | 0.717
